Experimental data taken from ChEMBL document CHEMBL3885881, “DrugMatrix”.

Species: Rattus norvegicus
Test: DrugMatrix - Regimen: Daily Repeat
Assay type: toxicity, organism-based, Sprague-Dawley
Parameters: regimen Daily Repeat, gender Male, age 6-8 weeks
Conditions: in vivo, po, route oral GAVAGE, vehicle 100 % WATER; for ABSOLUTE BASOPHIL / ABSOLUTE EOSINOPHIL / ABSOLUTE LYMPHOCYTE / ABSOLUTE MONOCYTE / ABSOLUTE SEGMENTED NEUTROPHIL / BASOPHIL / EOSINOPHIL / ERYTHROCYTE COUNT / HEMATOCRIT / HEMOGLOBIN / LEUKOCYTE COUNT / LYMPHOCYTE / MEAN CORPUSCULAR HEMOGLOBIN / MEAN CORPUSCULAR HEMOGLOBIN CONCENTRATION / MEAN CORPUSCULAR VOLUME / MONOCYTE / NEUTROPHIL / NUCLEATED RED BLOOD CELLS / PLATELET COUNT: tissue Blood; for ALANINE AMINOTRANSFERASE / ALBUMIN / ALKALINE PHOSPHATASE / ASPARTATE AMINOTRANSFERASE / BLOOD UREA NITROGEN / CARBON DIOXIDE / CHLORIDE / CHOLESTEROL / CREATINE PHOSPHOKINASE / CREATININE / GLUCOSE / LACTATE DEHYDROGENASE / LIPASE / PHOSPHORUS / POTASSIUM / SODIUM / TOTAL BILIRUBIN / TOTAL PROTEIN / URIC ACID: tissue Plasma
[1] = 0 mg/kg, 72 h, dose level Control, time 3 day
[2] = 0 mg/kg, 120 h, dose level Control, time 5 day
[3] = 50 mg/kg, 72 h, dose level Low, time 3 day

With `Cc1ncc([N+](=O)[O-])n1CCO` [METRONIDAZOLE] the “ABSOLUTE BASOPHIL” value [1] was 0 CELLS/uL, the “ABSOLUTE EOSINOPHIL” value [1] was 86.33 CELLS/uL and the “ABSOLUTE LYMPHOCYTE” value [1] was 12090.17 CELLS/uL. The “ABSOLUTE MONOCYTE” value [1] was 166.67 CELLS/uL, the “ABSOLUTE SEGMENTED NEUTROPHIL” value [1] was 1090.17 CELLS/uL and the BASOPHIL [1] was 0%. The EOSINOPHIL [1] was 0.67%, the “ERYTHROCYTE COUNT” value [1] was 5.57 x10E6/uL and the HEMATOCRIT [1] was 35.33%. The HEMOGLOBIN [1] was 13.83 G/DL, the “LEUKOCYTE COUNT” value [1] was 13.43 x10E3/uL and the LYMPHOCYTE [1] was 89.83%. For the same compound, the “MEAN CORPUSCULAR HEMOGLOBIN” value [1] was 24.88 pg, the “MEAN CORPUSCULAR HEMOGLOBIN CONCENTRATION” value [1] was 39.15 G/DL and the “MEAN CORPUSCULAR VOLUME” value [1] was 63.52 fL. The MONOCYTE [1] was 1.17%, the NEUTROPHIL [1] was 8.33% and the “NUCLEATED RED BLOOD CELLS” value [1] was 0 /100WBC. The “PLATELET COUNT” value [1] was 1181.33 x10E3/uL, the “ALANINE AMINOTRANSFERASE” value [1] was 48.33 u/L and the ALBUMIN [1] was 4.1 G/DL. The “ALKALINE PHOSPHATASE” value [1] was 395 u/L, the “ASPARTATE AMINOTRANSFERASE” value [1] was 81.83 u/L and the “BLOOD UREA NITROGEN” value [1] was 15.83 mg/dL. The “CARBON DIOXIDE” value [1] was 24.17 mmol/L, the CHLORIDE [1] was 103.83 MEQ/L and the CHOLESTEROL [1] was 63.67 mg/dL. The “CREATINE PHOSPHOKINASE” value [1] was 372.83 u/L, the CREATININE [1] was 0.18 mg/dL and the GLUCOSE [1] was 173.83 mg/dL. For the same compound, the “LACTATE DEHYDROGENASE” value [1] was 188.33 u/L, the LIPASE [1] was 9.5 u/L and the PHOSPHORUS [1] was 11.95 mg/dL. The POTASSIUM [1] was 5.99 MEQ/L, the SODIUM [1] was 144.43 MEQ/L and the “TOTAL BILIRUBIN” value [1] was 0.15 mg/dL. For the same compound, the “TOTAL PROTEIN” value [1] was 5.95 G/DL, the “URIC ACID” value [1] was 1.82 mg/dL and the “ABSOLUTE BASOPHIL” value [2] was 0 CELLS/uL. The “ABSOLUTE EOSINOPHIL” value [2] was 26.67 CELLS/uL, the “ABSOLUTE LYMPHOCYTE” value [2] was 7583.83 CELLS/uL and the “ABSOLUTE MONOCYTE” value [2] was 131.33 CELLS/uL. The “ABSOLUTE SEGMENTED NEUTROPHIL” value [2] was 674.83 CELLS/uL, the BASOPHIL [2] was 0% and the EOSINOPHIL [2] was 0.33%. For the same compound, the “ERYTHROCYTE COUNT” value [2] was 5.78 x10E6/uL, the HEMATOCRIT [2] was 36.48% and the HEMOGLOBIN [2] was 14.03 G/DL. For the same compound, the “LEUKOCYTE COUNT” value [2] was 8.42 x10E3/uL, the LYMPHOCYTE [2] was 89.83% and the “MEAN CORPUSCULAR HEMOGLOBIN” value [2] was 24.3 pg. For the same compound, the “MEAN CORPUSCULAR HEMOGLOBIN CONCENTRATION” value [2] was 38.52 G/DL, the “MEAN CORPUSCULAR VOLUME” value [2] was 63.15 fL and the MONOCYTE [2] was 1.67%. The NEUTROPHIL [2] was 8.17%, the “NUCLEATED RED BLOOD CELLS” value [2] was 0 /100WBC and the “PLATELET COUNT” value [2] was 1186.67 x10E3/uL. The “ALANINE AMINOTRANSFERASE” value [2] was 50.17 u/L, the ALBUMIN [2] was 4.07 G/DL and the “ALKALINE PHOSPHATASE” value [2] was 367.5 u/L. The “ASPARTATE AMINOTRANSFERASE” value [2] was 81.67 u/L, the “BLOOD UREA NITROGEN” value [2] was 16.17 mg/dL and the “CARBON DIOXIDE” value [2] was 32.33 mmol/L. For the same compound, the CHLORIDE [2] was 101.5 MEQ/L, the CHOLESTEROL [2] was 65.33 mg/dL and the “CREATINE PHOSPHOKINASE” value [2] was 255.33 u/L. For the same compound, the CREATININE [2] was 0.17 mg/dL, the GLUCOSE [2] was 139.33 mg/dL and the “LACTATE DEHYDROGENASE” value [2] was 95 u/L. The LIPASE [2] was 10.5 u/L, the PHOSPHORUS [2] was 10.38 mg/dL and the POTASSIUM [2] was 6.11 MEQ/L. For the same compound, the SODIUM [2] was 145.55 MEQ/L, the “TOTAL BILIRUBIN” value [2] was 0.17 mg/dL and the “TOTAL PROTEIN” value [2] was 5.98 G/DL. For the same compound, the “URIC ACID” value [2] was 0.93 mg/dL, the “ABSOLUTE BASOPHIL” value [3] was 0 CELLS/uL and the “ABSOLUTE EOSINOPHIL” value [3] was 59.33 CELLS/uL. For the same compound, the “ABSOLUTE LYMPHOCYTE” value [3] was 15201.67 CELLS/uL, the “ABSOLUTE MONOCYTE” value [3] was 170 CELLS/uL and the “ABSOLUTE SEGMENTED NEUTROPHIL” value [3] was 1569 CELLS/uL. For the same compound, the BASOPHIL [3] was 0%, the EOSINOPHIL [3] was 0.33% and the “ERYTHROCYTE COUNT” value [3] was 5.47 x10E6/uL. The HEMATOCRIT [3] was 35.2%, the HEMOGLOBIN [3] was 13.83 G/DL and the “LEUKOCYTE COUNT” value [3] was 17 x10E3/uL. The LYMPHOCYTE [3] was 88.67%, the “MEAN CORPUSCULAR HEMOGLOBIN” value [3] was 25.3 pg and the “MEAN CORPUSCULAR HEMOGLOBIN CONCENTRATION” value [3] was 39.3 G/DL. The “MEAN CORPUSCULAR VOLUME” value [3] was 64.4 fL, the MONOCYTE [3] was 1% and the NEUTROPHIL [3] was 10%. The “NUCLEATED RED BLOOD CELLS” value [3] was 0 /100WBC, the “PLATELET COUNT” value [3] was 1236.33 x10E3/uL and the “ALANINE AMINOTRANSFERASE” value [3] was 54.33 u/L. For the same compound, the ALBUMIN [3] was 3.9 G/DL, the “ALKALINE PHOSPHATASE” value [3] was 296.67 u/L and the “ASPARTATE AMINOTRANSFERASE” value [3] was 72 u/L. The “BLOOD UREA NITROGEN” value [3] was 13.67 mg/dL, the “CARBON DIOXIDE” value [3] was 28.33 mmol/L and the CHLORIDE [3] was 100.67 MEQ/L. The CHOLESTEROL [3] was 65 mg/dL, the “CREATINE PHOSPHOKINASE” value [3] was 186.33 u/L and the CREATININE [3] was 0.12 mg/dL. For the same compound, the GLUCOSE [3] was 155.67 mg/dL, the “LACTATE DEHYDROGENASE” value [3] was 82.33 u/L and the LIPASE [3] was 9.33 u/L. The PHOSPHORUS [3] was 12.27 mg/dL, the POTASSIUM [3] was 6.41 MEQ/L and the SODIUM [3] was 142.37 MEQ/L. The “TOTAL BILIRUBIN” value [3] was 0.17 mg/dL, the “TOTAL PROTEIN” value [3] was 5.6 G/DL and the “URIC ACID” value [3] was 1.5 mg/dL.
